Reference: US20030225007A1, “Sulfonamide derivatives of 3-substituted imidazol[1,2-d]-1,2,4-thiadiazoles and 3-substituted-[1,2,4] thiadiazolo[4,5-a] benzimidazole as inhibitors of fibrin cross-linking and transglutaminases” (Apotex Inc., priority 2002, published 2003)

Experiments:
[1] = target: T1, Guinea pig liver TGase (Cavia cutleri, UniProt P08587); assay: Enzyme selectivity: inactivation of tissue type transglutaminase; assay type: biochemical; details: TGAse IC50, Guinea pig liver TGase; 5-min incubation at 37° C. in the absence of substrate
T1 construct: Guinea pig liver TGase; from tissue; host or cells: guinea pig liver
T1 sequence (P08587 2-690): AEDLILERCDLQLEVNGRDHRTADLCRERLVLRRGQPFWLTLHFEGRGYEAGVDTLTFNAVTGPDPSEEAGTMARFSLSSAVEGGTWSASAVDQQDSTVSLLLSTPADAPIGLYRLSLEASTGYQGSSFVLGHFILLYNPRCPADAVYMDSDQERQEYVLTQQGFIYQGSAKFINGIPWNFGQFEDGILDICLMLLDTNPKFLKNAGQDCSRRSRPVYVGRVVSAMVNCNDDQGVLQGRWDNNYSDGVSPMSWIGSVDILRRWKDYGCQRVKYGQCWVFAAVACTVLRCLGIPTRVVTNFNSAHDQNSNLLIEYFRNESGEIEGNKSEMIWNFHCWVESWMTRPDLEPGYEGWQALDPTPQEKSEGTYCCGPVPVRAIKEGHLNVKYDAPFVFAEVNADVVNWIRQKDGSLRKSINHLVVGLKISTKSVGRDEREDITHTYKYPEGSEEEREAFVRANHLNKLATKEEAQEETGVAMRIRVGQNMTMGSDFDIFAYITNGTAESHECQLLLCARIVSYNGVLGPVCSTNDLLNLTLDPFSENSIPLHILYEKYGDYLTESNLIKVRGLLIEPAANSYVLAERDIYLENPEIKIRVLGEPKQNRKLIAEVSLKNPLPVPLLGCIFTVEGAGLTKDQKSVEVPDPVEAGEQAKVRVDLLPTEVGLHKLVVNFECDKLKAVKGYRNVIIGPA
Experimental: Enzyme selectivity . Inactivation of tissue type transglutaminase: Inhibitor solution in DMSO (5 μL) was added to 250 mM Tris-Cl pH 7.5 containing 40 mM CaCl2 and 1 mM EDTA in a final volume of 42 μL. Guinea pig liver TGase (3 μL, 2.5 mg/mL in 5 mM Tris-HCl pH 7.5, 2 mM EDTA) was added and the mixture was incubated for 5 min. at 37° C.
An assay mixture composed of 50 mM Tris-Cl, pH 8.0, 10 mM CaCl2, 1 mM EDTA, 0.1% poly(ethylene glycol) (app. MW=1000) and 20 μM monodansylcadaverine was prepared in a spectrofluorimetric cell in a final volume of 2952 μL. Dimethylcasein (8 μL, 1% in 50 mM sodium phosphate pH 7.5) was added and the mixture was incubated at 37° C. for a few minutes. To assay the residual enzyme activity, 40 μL of the solution containing the enzyme and the inhibitor was transferred to the assay mixture. The covalent incorporation of monodansylcadaverine into casein was monitored by an increase in fluorescence at λexc=360 nm and λem=500 nm, as previously described ((Curtis, C. G.; Lorand, L. Methods Enzymol. 1976, 45, 177-191). To determine uninhibited enzyme activity, DMSO was used in place of inhibitor solution in the above assay. IC50 values were determined by plotting the percent of remaining enzyme activity against logarithm of inhibitor concentration. IC50 is defined here as inhibitor concentration resulting in 50% enzyme inactivation after 5-min incubation of the enzyme with the inhibitor in the absence of the substrate. Second order rate constants for inactivation were determined using method described by Kitz and Wilson (Kitz, R.; Wilson, I. J.Biol.Chem. 1962,237, 3245).

[2] = test system: platelet-depleted and platelet-rich human plasma clots; assay: Acceleration of fibrinolysis of platelet-depleted and platelet-rich plasma clots (t-PA lysis); assay type: biochemical; details: platelet-depleted and platelet-rich human plasma clots made with varying inhibitor concentrations; lysis with 300 IU/mL t-PA; FIG. 3
Experimental: Platelet rich (platelet count: 150,000-300,000 mm^−3) or platelet-depleted citrated human plasma was prepared from at least three donors. Plasma (0.3 mL), containing 2-4 μg/mL of ^125I-labeled fibrinogen (specific activity approx. 200 μCi/mg, at least 85% clotability, Amersham Pharmacia Biotech UK Ltd.), was clotted by the addition of CaCl2 (6.4 μL) to a final concentration of 50 mM and thrombin (6.2 μL) to a final concentration of 5 units/mL. Solutions of Factor XIIIa inactivators in DMSO were added just prior to the addition of thrombin and CaCl2. In some cases the inactivator was dissolved and added to plasma in water. To these samples, DMSO (3.2 μL) was mixed in to make 1% final concentration. Conversely, water (3.2 μL) was added to clots to which inactivator was added in DMSO. […] The progress of the fibrinolysis was followed by quantitating the amount of radioactivity in a 20 μL aliquot of the lysis buffer at various lysis times. To measure the total amount of radioactivity in the clots taken for lysis, 0.6 mg bovine trypsin was added to each sample at the end of the lysis and the solutions were incubated for 4 hours at 37° C., or until the digestion was complete. An aliquot (20 μL) of the resulting solution was counted in the liquid scintillation counter. Per cent of fibrinolysis was then calculated with a correction for sub-sampling. […]

SMILES: O=S(=O)(NCCCCCCNc1nsc2nccn12)c1cccc2ccccc12 [1-naphthyl, N-[6-(imidazo[1,2-d][1,2,4]thiadiazol-3-ylamino)hexyl]naphthalene-1-sulfonamide]
- IC50 [1]: 23 µM

SMILES: O=S(=O)(Cc1ccccc1)NCCCCCCNc1nsc2nccn12 [2 / CH2Ph, N-[6-(imidazo[1,2-d][1,2,4]thiadiazol-3-ylamino)hexyl]-1-phenylmethanesulfonamide]
- IC50 [1]: 27 µM

SMILES: O=S(=O)(NCCCCCCNc1nsc2nccn12)c1ccc(F)cc1F [2,4-diF-Ph, 2,4-difluoro-N-[6-(imidazo[1,2-d][1,2,4]thiadiazol-3-ylamino)hexyl]benzenesulfonamide]
- IC50 [1]: 23 µM

SMILES: O=S(=O)(NCCCCCCNc1nsc2nccn12)c1ccc(OC(F)(F)F)cc1 [4-OCF3-Ph, N-[6-(imidazo[1,2-d][1,2,4]thiadiazol-3-ylamino)hexyl]-4-trifluoromethoxybenzenesulfonamide]
- IC50 [1]: 31 µM

SMILES: O=C(O)CN(CCCCCCNS(=O)(=O)c1ccccc1[N+](=O)[O-])c1nsc2nccn12 [H / CH2CO2H / 2-NO2-Ph, N-imidazo[1,2-d][1,2,4]thiadiazol-3-yl-N-(6-{[(2-nitrophenyl)sulfonyl]amino}hexyl)glycine]
- IC50 [1]: 17 µM
- fibrinolysis of plasma clots [2]: acceleration of fibrinolysis
